Laboratory results taken from PubChem BioAssay (NCI).
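Assay format: 96-well plates, 48-hour exposure. The concentration for full growth arrest is given as TGI.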

Tests used:
Assay in all cases: DTP human tumour cell line panel, 48 h
SNB-19 CNS = tested on: SNB-19 CNS
TK-10 renal = tested on: TK-10 renal
K-562 leukemia = tested on: K-562 leukemia
OVCAR-5 ovarian = tested on: OVCAR-5 ovarian
MCF7 breast = tested on: MCF7 breast
SK-MEL-5 melanoma = tested on: SK-MEL-5 melanoma
SF-268 CNS = tested on: SF-268 CNS
A498 renal = tested on: A498 renal
RXF 393 renal = tested on: RXF 393 renal
NCI-H460 lung = tested on: NCI-H460 lung
NCI-H23 lung = tested on: NCI-H23 lung
BT-549 breast = tested on: BT-549 breast
PC-3 prostate = tested on: PC-3 prostate
IGROV1 ovarian = tested on: IGROV1 ovarian
HCT-15 colon = tested on: HCT-15 colon
HS 578T breast = tested on: HS 578T breast
LOX IMVI melanoma = tested on: LOX IMVI melanoma
OVCAR-8 ovarian = tested on: OVCAR-8 ovarian
SN12C renal = tested on: SN12C renal
UO-31 renal = tested on: UO-31 renal
SW-620 colon = tested on: SW-620 colon
SK-MEL-28 melanoma = tested on: SK-MEL-28 melanoma
NCI/ADR-RES ovarian = tested on: NCI/ADR-RES ovarian
ACHN renal = tested on: ACHN renal
SNB-75 CNS = tested on: SNB-75 CNS
HCC-2998 colon = tested on: HCC-2998 colon
UACC-62 melanoma = tested on: UACC-62 melanoma
MOLT-4 leukemia = tested on: MOLT-4 leukemia
CCRF-CEM leukemia = tested on: CCRF-CEM leukemia
EKVX NSCLC = tested on: EKVX NSCLC
HT29 colon = tested on: HT29 colon
SK-OV-3 ovarian = tested on: SK-OV-3 ovarian
U251 CNS = tested on: U251 CNS
SR leukemia = tested on: SR leukemia
HOP-92 NSCLC = tested on: HOP-92 NSCLC
MALME-3M melanoma = tested on: MALME-3M melanoma
UACC-257 melanoma = tested on: UACC-257 melanoma
HOP-62 NSCLC = tested on: HOP-62 NSCLC
COLO 205 colon = tested on: COLO 205 colon
RPMI-8226 leukemia = tested on: RPMI-8226 leukemia
HL-60(TB) leukemia = tested on: HL-60(TB) leukemia
786-0 renal = tested on: 786-0 renal
HCT-116 colon = tested on: HCT-116 colon
NCI-H226 lung = tested on: NCI-H226 lung
MDA-MB-231 breast = tested on: MDA-MB-231 breast
M14 melanoma = tested on: M14 melanoma
A549 NSCLC = tested on: A549 NSCLC
KM12 colon = tested on: KM12 colon
T-47D breast = tested on: T-47D breast

Clc1ccc2sc(-n3ccc4ccccc43)nc2c1
TGI (SNB-19 CNS): > 100 µM | TGI (TK-10 renal): > 100 µM | TGI (K-562 leukemia): > 100 µM | TGI (OVCAR-5 ovarian): > 100 µM | TGI (MCF7 breast): > 100 µM | TGI (SK-MEL-5 melanoma): > 100 µM | TGI (SF-268 CNS): > 100 µM | TGI (A498 renal): > 100 µM | TGI (RXF 393 renal): 69.3 µM | TGI (NCI-H460 lung): > 100 µM | TGI (NCI-H23 lung): > 100 µM | TGI (BT-549 breast): > 100 µM | TGI (PC-3 prostate): > 100 µM | TGI (IGROV1 ovarian): > 100 µM | TGI (HCT-15 colon): > 100 µM | TGI (HS 578T breast): > 100 µM | TGI (LOX IMVI melanoma): > 100 µM | TGI (OVCAR-8 ovarian): > 100 µM | TGI (SN12C renal): > 100 µM | TGI (UO-31 renal): > 100 µM | TGI (SW-620 colon): > 100 µM | TGI (SK-MEL-28 melanoma): > 100 µM | TGI (NCI/ADR-RES ovarian): > 100 µM | TGI (ACHN renal): > 100 µM | TGI (SNB-75 CNS): > 100 µM | TGI (HCC-2998 colon): > 100 µM | TGI (UACC-62 melanoma): > 100 µM | TGI (MOLT-4 leukemia): > 100 µM | TGI (CCRF-CEM leukemia): > 100 µM | TGI (EKVX NSCLC): > 100 µM | TGI (HT29 colon): > 100 µM | TGI (SK-OV-3 ovarian): > 100 µM | TGI (U251 CNS): > 100 µM

COc1ccc(N2C(=Nc3ccccc3)SC(=N/S(=O)(=O)c3ccccc3)/C2=N\S(=O)(=O)c2ccccc2)cc1
TGI (SR leukemia): 40.4 µM | TGI (SNB-19 CNS): 57.5 µM | TGI (TK-10 renal): 52.3 µM | TGI (HOP-92 NSCLC): 42 µM | TGI (K-562 leukemia): 44.1 µM | TGI (MALME-3M melanoma): 53.9 µM | TGI (UACC-257 melanoma): 73.1 µM | TGI (OVCAR-5 ovarian): 50.7 µM | TGI (MCF7 breast): 40.8 µM | TGI (SK-MEL-5 melanoma): 31.9 µM | TGI (A498 renal): 52.4 µM | TGI (RXF 393 renal): 28.2 µM | TGI (HOP-62 NSCLC): 98.5 µM | TGI (COLO 205 colon): 41 µM | TGI (NCI-H460 lung): 26.2 µM | TGI (NCI-H23 lung): 27.4 µM | TGI (RPMI-8226 leukemia): 50.8 µM | TGI (BT-549 breast): 54.2 µM | TGI (PC-3 prostate): 42.3 µM | TGI (IGROV1 ovarian): 27.3 µM | TGI (HCT-15 colon): 31.8 µM | TGI (HS 578T breast): 55.7 µM | TGI (HL-60(TB) leukemia): 33.4 µM | TGI (786-0 renal): 64.8 µM | TGI (OVCAR-8 ovarian): 39.6 µM | TGI (SN12C renal): 39.8 µM | TGI (UO-31 renal): 55.3 µM | TGI (SW-620 colon): > 100 µM | TGI (SK-MEL-28 melanoma): 33.9 µM | TGI (ACHN renal): 61.1 µM | TGI (SNB-75 CNS): 55 µM | TGI (HCT-116 colon): 28.2 µM | TGI (HCC-2998 colon): 42 µM | TGI (UACC-62 melanoma): 19.8 µM | TGI (NCI-H226 lung): 56.8 µM | TGI (MOLT-4 leukemia): 45.6 µM | TGI (MDA-MB-231 breast): 43.5 µM | TGI (CCRF-CEM leukemia): 46 µM | TGI (EKVX NSCLC): 61.2 µM | TGI (HT29 colon): 48 µM | TGI (M14 melanoma): > 100 µM | TGI (A549 NSCLC): 46.5 µM | TGI (KM12 colon): 88.7 µM | TGI (T-47D breast): 20.1 µM | TGI (U251 CNS): 35.4 µM
